# Measured values reported in paper PMC10862539, “Chelation of Mitochondrial Iron as an Antiparasitic Strategy” (ACS Infectious Diseases, 2024).
# Where two headings read alike, the source gives them in different places.
# Key:
# [1] = test system: T. brucei BSF cells; assay: Sytox Green assay, percentage of live cells; assay type: cell-based, Trypanosoma brucei
# Procedure: Sytox Green Assay to determine the percentage of live treated and untreated cells at selected time points. T. brucei BSF cells were seeded at a concentration of 2 × 10^5 cells/mL in 5 mL HMI-9 medium in aerobic cultivation flasks. Cells were treated with compounds at final concentration of 0,05 µM, 0,1 µM, 0,25 µM mitoDFO and 10 µM, 100 µM DFO. In addition, there was a group of untreated cells. At defined time points (24, 36, 48, and 72 h), 20 µL samples were collected from each flask. These samples were then diluted tenfold in fresh HMI-9 medium, reaching a final volume of 200 µL, with the addition of 2 µL SYTOX Green Dead Cell Stain (Invitrogen). Following a 30-minute incubation under standard growth conditions, the cells were analyzed using a Guava EasyCyte 8HT flow cyometer (Luminex flow) with detection at 504/523 nm. This entire procedure was conducted in biological triplicates.
# Compound Concentration % of live cells
# [2] = test system: C. albicans; assay: Drug sensitivity assay, C. albicans (OD600); assay type: cell-based, Candida albicans; conditions: for EC50: Candida albicans, 48 h
# Procedure: (§1) All organisms were cultivated according to the conditions summarized in Table S2, which also includes strain specifications. Dose–response curves were obtained by their cultivation on 96 well plates in a 2-fold series dilution of the appropriate drug, in a total volume of 200 μL (with the exception of P. falciparum, where the total volume was 100 μL). Iron supplementation was achieved by mixing the compound with Fe-NTA in an equimolar ratio prior to setting up the experiment. Results were plotted and processed using Prism 8.0 (GraphPad Software). A two-tailed unpaired t-test was performed to assess the significance of the difference between mitoDFO with and without added iron. Selectivity was calculated as the ratio of the average EC50 value for human fibroblasts to the average EC50 value for the appropriate pathogen. All data were obtained from a minimum of three independent biological replicates.
# [3] = test system: L. mexicana (amastigote); assay: Drug sensitivity assay, axenic L. mexicana amastigote (flow cytometry); assay type: cell-based, Leishmania mexicana; conditions: for EC50: Leishmania mexicana
# Procedure: as §1
# [4] = test system: Babesia gibsoni; design: method as in PMID 18771856; conditions: B. gibsoni; ref [40]; cited from earlier work
# [5] = test system: N. fowleri; assay: Drug sensitivity assay, N. fowleri (flow cytometry); assay type: cell-based; conditions: for selectivity (for −Fe): EC50 human fibroblasts / EC50 N. fowleri; for EC50: Naegleria fowleri, 72 h
# Procedure: as §1
# [6] = test system: mitochondrial threonine dehydrogenase; assay: Threonine dehydrogenase activity in mitochondrial fraction of treated T. brucei 427; assay type: cell-based, Trypanosoma brucei; conditions: 0.12 μM compound, 24 h
# Procedure: (§2) T. brucei 427 bloodstream forms were preincubated for 24 h in appropriate conditions (0.12 μM mitoDFO, 0.12 μM DFO, and no addition) and harvested, and cytosolic and mitochondrial fractions were separated by digitonin fractionation as described previously.[46] Briefly, cells were spun down (1200 g, 15 min, 4 °C) and resuspended in SHE buffer (250 mM sucrose, 25 mM HEPES, 1 mM EDTA, pH 7.4), and protein concentration was measured using a BCA kit (Sigma-Aldrich). Subsequently, cells were transferred into HBSS (Sigma-Aldrich) and digitonin (Calbiochem) was added in the protein/digitonin ratio of 1/0.15 for 4 min and spun (21 000 g, 2 min, 4 °C). […] The activities of cytosolic pyruvate kinase and mitochondrial threonine dehydrogenase were assessed in all conditions using the spectrophotometric assay at […], as described in ref ([46]), and served both as markers of successful fraction preparation and to assess the effect of the studied compounds. Briefly, pyruvate kinase was measured in TEA buffer (0.1 M triethanolamine, 5 mM MgSO4, 50 mM KCl, pH 7.6) with added 2.8 mM phosphoenolpyruvate, 2 mM ADP, 0.3 mM NADH, and lactate dehydrogenase. Threonine dehydrogenase was measured in 0.2 M Tris–HCl buffer, pH 8.6, 0.25 KCl with 120 mM threonine, and 2.5 mM NAD^+. Fumarase was measured at […] in 2 mM Tris–HCl buffer, pH 7.5, with 20 mM malate.
# [7] = test system: Human fibroblast BJ1; assay: Drug sensitivity assay, human fibroblast BJ1 (CellTiter-Glo); assay type: cell-based; conditions: for EC50: 48 h
# Procedure: as §1
# [8] = test system: cytosolic pyruvate kinase; assay: Pyruvate kinase activity in cytosolic fraction of treated T. brucei 427; assay type: cell-based, Trypanosoma brucei; conditions: 0.12 μM compound, 24 h
# Procedure: as §2
# [9] = test system: Trypanosoma brucei 427 bloodstream forms; assay: T. brucei growth curves and doubling time (flow cytometry); assay type: cell-based; conditions: for Average doubling time: calculated between 24 and 48 h
# Procedure: Bloodstream T. brucei 427 cells were inoculated to a concentration of […] and incubated with the addition of mitoDFO (0.025 and 0.1 μM) or DFO (2.5 and 10 μM) in aerobic flasks in a total volume of 5 mL in 5% CO2 at 37 °C. Control with no compound was used to obtain reference values. At time points 24, 36, 48, and 72 h, a 20 μL sample was collected, diluted in growth medium, and measured on a Guava EasyCyte 8HT flow cytometer (Luminex) to assess concentration in previously experimentally prepared settings. The culture was simultaneously observed by light microscopy to confirm the cell viability. The growth curve was plotted by using Prism 8.0 (GraphPad Software). All conditions were measured in three biologically independent replicates. Doubling time was calculated between 24 and 48 h time points using the online calculator,[45] and each of the conditions was compared to the untreated culture using a two-tailed unpaired t-test.
# [10] = test system: Candida albicans; assay: C. albicans hyphae formation (phase contrast microscopy); assay type: cell-based; conditions: 3.6 and 7.2 μM mitoDFO for 24 h
# Procedure: The yeast form of C. albicans was seeded in the 2 mL RPMI medium on a 24 well plate with a glass bottom and treated with MitoDFO in concentrations of 0, 3.6, and 7.2 μM. The culture was incubated at 35 °C for 24 h, and microscopic images were taken using phase contrast on an inverted microscope Eclipse TI-S (Nikon).
# [11] = axenic monoculture, read-out: EC50 axenic Leishmania mexicana
# [12] = iron-free compound, L. mexicana (amastigote), 120 h, read-out: EC50 –Fe
# [13] = pre-treated with equimolar iron, L. mexicana (amastigote), 120 h, read-out: EC50 +Fe
# [14] = approximately half the EC50 concentration of the compound
smiles,measurement,setting,value
"CC(=O)N(O)CCCCCNC(=O)CCC(=O)N(O)CCCCCNC(=O)CCC(=O)N(O)CCCCCN [DFO, Deferoxamine, reference compound]",% of live cells,"[1]; 10 µM DFO, 24h","99,1%"
same,% of live cells,"[1]; 10 µM DFO, 36h","97,5%"
same,% of live cells,"[1]; 10 µM DFO, 48h","74,3%"
same,% of live cells,"[1]; 10 µM DFO, 72h","58,6%"
same,% of live cells,"[1]; 100 µM DFO, 24h","95,5%"
same,% of live cells,"[1]; 100 µM DFO, 36h","78,2%"
same,% of live cells,"[1]; 100 µM DFO, 48h","62,1%"
same,% of live cells,"[1]; 100 µM DFO, 72h","54,8%"
same,EC50,"[2]; iron-free compound, C. albicans, read-out: EC50 –Fe",> 100 µM
same,EC50,"[2]; pre-treated with equimolar iron, C. albicans, read-out: EC50 +Fe",> 100 µM
same,EC50,[3]; [11],> 25 µM
same,EC50,[3]; [12],> 25 µM
same,EC50,[3]; [13],> 25 µM
same,EC50,[4],6.45 ± 3.43 µM
same,selectivity (for −Fe),[5],>5
same,EC50,"[5]; iron-free compound, N. fowleri, read-out: EC50 –Fe",19.5 ± 5.9 µM
same,EC50,"[5]; pre-treated with equimolar iron, N. fowleri, read-out: EC50 +Fe",> 100 µM
same,threonine dehydrogenase activity,[6],not
same,EC50,"[7]; iron-free compound, Human fibroblast BJ1, read-out: EC50 –Fe",> 100 µM
same,EC50,"[7]; pre-treated with equimolar iron, Human fibroblast BJ1, read-out: EC50 +Fe",> 100 µM
same,pyruvate kinase activity,[8],no difference in activity
same,Average doubling time,[9]; 2.5 μM DFO,8.28 h
same,Average doubling time,[9]; 10 μM DFO,14.17 h
same,cell proliferation (growth curve),[9]; [14],slows down cell proliferation
CC(=O)N(O)CCCCCNC(=O)CCC(=O)N(O)CCCCCNC(=O)CCC(=O)N(O)CCCCCN(CCCCCCCCCC[P+](c1ccccc1)(c1ccccc1)c1ccccc1)CCCCCCCCCC[P+](c1ccccc1)(c1ccccc1)c1ccccc1 [mitoDFO],% of live cells,"[1]; 0,1 µM mitoDFO, 24h","99,1%"
same,% of live cells,"[1]; 0,1 µM mitoDFO, 36h","97,9%"
same,% of live cells,"[1]; 0,1 µM mitoDFO, 48h","66,2%"
same,% of live cells,"[1]; 0,1 µM mitoDFO, 72h","53,8%"
same,% of live cells,"[1]; 0,05 µM mitoDFO, 24h","98,6%"
same,% of live cells,"[1]; 0,05 µM mitoDFO, 36h","96,1%"
same,% of live cells,"[1]; 0,05 µM mitoDFO, 48h","62,1%"
same,% of live cells,"[1]; 0,05 µM mitoDFO, 72h","52,8%"
same,% of live cells,"[1]; 0,25 µM mitoDFO, 24h","94,4%"
same,% of live cells,"[1]; 0,25 µM mitoDFO, 36h","82,5%"
same,% of live cells,"[1]; 0,25 µM mitoDFO, 48h","70,2%"
same,% of live cells,"[1]; 0,25 µM mitoDFO, 72h","64,3%"
same,cells alive,[1]; 24 h incubation with up to 0.25 μM,more than 90%
same,living cells,"[1]; twice the EC50 concentration, 36 h",more than 95%
same,DFO/mitoDFO ratio (−Fe),[2]; C. albicans,>27.8
same,mitoDFO EC50 ratio + Fe/–Fe,[2]; C. albicans,2.6
same,EC50,[2]; read-out: EC50 –Fe,3.6 ± 1.7 µM
same,selectivity (for −Fe),[2]; EC50 human fibroblasts / EC50 C. albicans,2
same,selectivity (for −Fe),[3]; EC50 human fibroblasts / EC50 L. mexicana (amastigote),6
same,DFO/mitoDFO ratio (−Fe),[3]; L. mexicana (amastigote),>15.6
same,mitoDFO EC50 ratio + Fe/–Fe,[3]; L. mexicana (amastigote),1.5
same,EC50,[3]; [11],1.56 ± 0.5 µM
same,EC50,[3]; [12],1.6 ± 0.5 µM
same,EC50,[3]; [13],2.4 ± 0.5 µM
same,selectivity (for −Fe),[5],1
same,DFO/mitoDFO ratio (−Fe),[5]; N. fowleri,2.9
same,mitoDFO EC50 ratio + Fe/–Fe,[5]; N. fowleri,3.0
same,EC50,[5]; read-out: EC50 –Fe,6.7 ± 0.7 µM
same,hyphal growth of Candida albicans culture,[10],absence of hyphal growth
same,threonine dehydrogenase activity,[6],significantly reduced
same,EC50,"[7]; Homo sapiens, Fibroblast, read-out: EC50 –Fe",8.9 ± 3.2 µM
same,DFO/mitoDFO ratio (−Fe),[7]; Human fibroblast BJ1,>11.2
same,mitoDFO EC50 ratio + Fe/–Fe,[7]; Human fibroblast BJ1,2.5
same,pyruvate kinase activity,[8],no difference in activity
same,Average doubling time,[9]; 0.025 μM mitoDFO,8.07 h
same,cell proliferation (growth curve),[9]; [14],does not affect cell proliferation
same,cell proliferation (growth curve),[9]; twice the EC50 concentration,stops its growth
